{"source": "patent US9102636B2", "about": "“Analgesic compounds, compositions, and uses thereof” (Galleon Pharmaceuticals, Inc., priority 2010, dated 2015)", "key": {"[1]": {"test_system": "hyperalgesia caused by SIN-1", "assay": "Hyperalgesia caused by SIN-1", "assay_type": "in vivo", "settings": "rat; IV 15 minutes before first SIN-1 (1 mg/kg); FIG. 11", "procedure": "Vehicle or compound 2 was given IV 15 minutes before the first administration of SIN-1 (1 mg/kg)."}, "[2]": {"test_system": "hyperalgesia following incisional surgery", "assay": "Incisional hyperalgesia, dosing at conclusion of surgery", "assay_type": "in vivo", "settings": "rat; IV at conclusion of surgical incision; FIG. 9"}, "[3]": {"test_system": "FCA induced tactile allodynia", "assay": "FCA induced tactile allodynia (electronic von Frey)", "assay_type": "in vivo, rat", "procedure": "Compound 2 was evaluated in the rat Freund's complete adjuvant (FCA) model of inflammatory pain. The rat Freund's complete adjuvant (FCA) intraplantar model of inflammatory pain produces behaviors similar to those observed in patients and has been widely used to assess novel pharmacological treatments (Lam et al., 2008, J Ethnopharmacol. 120:44-50). The positive control was celecoxib (TRC, Montreal), and the negative control was vehicle (0.5% methyl cellulose, in phosphate buffered saline). […] The Hargreaves apparatus was obtained from Ugo Basile, Italy. The Freund's complete adjuvant was obtained from Sigma, St. Louis, and the electronic von frey was obtained from Stoelting, Ill. For this assay, paw withdrawal latency to a thermal stimulus was assessed using a radiant heat source (Ugo Basile, Italy) aimed at the plantar surface of the left hind paw (Hargreaves test; […] Paw withdrawal thresholds to a non-noxious tactile stimulus was assessed using an electronic von Frey apparatus that presented an increasing mechanical force to the plantar surface of the hind paw. Paw volume was measured by displacement of water and assuming a tissue density equal to that of water. […] Celecoxib (30 mg/kg p.o.) served as the positive control. […] After induction of anesthesia, the injection site was prepared in a sterile manner and 100 μl of a 50% suspension of FCA injected. After injection, animals were weighed and allowed to recover before being returned to their home cages. Statistical significance was determined on untransformed data using a two-way analysis of variance (Graphpad Prism, NC). Significant main effects were analyzed further by subsequent Bonferronni post-hoc test. The level of significance was set at p<0.05. Data are shown as mean±S.E.M. (with an asterisk to denote significance as compared to vehicle treated controls)."}, "[4]": {"test_system": "capsaicin-mediated hyperalgesia", "assay": "Capsaicin-induced hyperalgesia", "assay_type": "in vivo", "settings": "rat; IV prior to intra-plantar capsaicin; FIG. 8"}, "[5]": {"test_system": "PC12 cells", "assay": "Inhibition of peroxynitrite (SIN-1) mediated cytotoxicity, ATPlite", "assay_type": "cell-based", "settings": "Rattus norvegicus, PC-12, SIN-1 overnight, average of two plates", "text": "ATPlite is an Adenosine TriPhosphate monitoring system based on firefly luciferase. ATP monitoring was used as a measure of PC12 cell viability, as it is present in all metabolically active cells and its concentration very rapidly declines as cells undergo necrosis and apoptosis. ATPlite is based upon the production of light given off during the reaction of ATP & D-Luciferin in the presence of Luciferase. The emitted light is proportional to the ATP concentration. Compounds of the invention were assessed for their ability to inhibit SIN-1 induced cell toxicity. Inhibitory concentrations, IC50 values, were calculated by testing compounds of the invention at various concentrations and averaging the IC50 of two plates.\nAll cell work was carried out under the cell culture hood in a sterile environment. […] The cells were counted in the 4 large corner quadrants of the hemacytometer under the inverted microscope at 10× and the average of the 4 quadrants was calculated. Blue cells were not counted as these cells represented non-viable cells. The number of cells present in 1 mL of media was determined using the following equation: cells/mL=(# cells counted/# squares counted)×10^4×dilution factor. […]\nOn Day 3, 10.25 ml of ATPlite buffer was added to 1 vial of lyophilized substrate solution (ATPlite 1 step luminescence ATP detection Assay system (Perkin Elmer, #6016731)). […]"}, "[6]": {"test_system": "hyperalgesia following incisional surgery", "assay": "Established incisional hyperalgesia, dosing 24 hours after surgery", "assay_type": "in vivo", "settings": "rat; given 24 hours after surgical incision; FIG. 10"}}, "note": "“And” between values parts separate entries of the source, which are not always exact repeats. Equal values may be shown once. “Also recorded” adds a separate entry of the source.", "data": [{"smiles": "CC1(C)SC(Nc2ccccc2O)=N[C@@H]1C(=O)O", "note": "[Compound 2, (R)-2-(2-hydroxyphenylamino)-thiazoline-5,5-dimethyl-4-carboxylic acid]", "values": [{"measurement": "hyperalgesia caused by SIN-1", "setting": "[1]", "result": "inhibits hyperalgesia caused by SIN-1"}, {"measurement": "development of hyperalgesia following incisional surgery", "setting": "[2]", "result": "inhibits the development of hyperalgesia following incisional surgery"}, {"measurement": "Paw withdrawl threshold", "setting": "[3]; 30 (min post-dose), 30 mg/kg p.o. 24 hours post-FCA, 30 mg/kg", "result": "19.3 g and 32.6 g and 27.3 g and 30.2 g and 26.3 g and 19.5 g"}, {"measurement": "Paw withdrawl threshold", "setting": "[3]; 30 (min post-dose), 100 mg/kg p.o. 24 hours post-FCA, 100 mg/kg", "result": "28.6 g and 27.9 g and 19.3 g and 34.6 g and 31.6 g and 21 g"}, {"measurement": "Paw withdrawl threshold", "setting": "[3]; 60 (min post-dose), 3 mg/kg p.o. 24 hours post-FCA, 3 mg/kg", "result": "22 g and 16.5 g and 21.4 g and 15.7 g and 22.3 g and 18 g"}, {"measurement": "Paw withdrawl threshold", "setting": "[3]; 60 (min post-dose), 30 mg/kg p.o. 24 hours post-FCA, 30 mg/kg", "result": "24 g and 24.2 g and 26.5 g and 21.6 g and 27.4 g and 31.1 g"}, {"measurement": "Paw withdrawl threshold", "setting": "[3]; 60 (min post-dose), 100 mg/kg p.o. 24 hours post-FCA, 100 mg/kg", "result": "31.2 g and 27.5 g and 35.3 g and 29.1 g and 30.3 g and 34.6 g"}, {"measurement": "Paw withdrawl threshold", "setting": "[3]; BL(D1), 24 hours post-FCA before dosing, 3 mg/kg group, 3 mg/kg", "result": "20.5 g and 15.3 g and 18.5 g and 16.5 g and 17.3 g and 15.8 g"}, {"measurement": "Paw withdrawl threshold", "setting": "[3]; BL(D1), 24 hours post-FCA before dosing, 30 mg/kg group, 30 mg/kg", "result": "15 g and 19.2 g and 18.2 g and 22.5 g and 17.8 g and 16.5 g"}, {"measurement": "Paw withdrawl threshold", "setting": "[3]; BL(D1), 24 hours post-FCA before dosing, 100 mg/kg group, 100 mg/kg", "result": "12.8 g and 13.9 g and 16 g and 19.3 g and 23.51 g and 12.6 g"}, {"measurement": "Paw withdrawl threshold", "setting": "[3]; baseline (pre-FCA), 3 mg/kg group, individual rats, 3 mg/kg", "result": "36.1 g and 32.4 g and 35.8 g and 33.4 g and 34.4 g and 30.9 g"}, {"measurement": "Paw withdrawl threshold", "setting": "[3]; baseline (pre-FCA), 10 mg/kg group, individual rats, 10 mg/kg", "result": "28.6 g and 26.67 g and 37.9 g and 31.3 g and 39 g and 31.8 g"}, {"measurement": "Paw withdrawl threshold", "setting": "[3]; baseline (pre-FCA), 30 mg/kg group, individual rats, 30 mg/kg", "result": "33.2 g and 34.9 g (2×) and 36.6 g and 35.6 g and 33.4 g"}, {"measurement": "Paw withdrawl threshold", "setting": "[3]; baseline (pre-FCA), 100 mg/kg group, individual rats, 100 mg/kg", "result": "31.8 g and 26.6 g and 27.6 g and 33.33 g and 37.8 g and 31.9 g"}, {"measurement": "Paw withdrawal latency (s), FIG. 18B", "setting": "[3]; baseline (prior to FCA), individual rats", "result": "29.6 s (2×) and 32.5 s and 29.8 s and 27.5 s and 31.4 s"}, {"measurement": "Paw withdrawal latency (s), FIG. 18B", "setting": "[3]; day 1, compound 2 25 mg/kg i.v. preemptive, individual rats, 25 mg/kg", "result": "36.7 s and 26.7 s and 38.9 s and 25 s and 27 s and 29 s"}, {"measurement": "Paw withdrawal latency (s), FIG. 18B", "setting": "[3]; day 3, compound 2 25 mg/kg i.v. preemptive, individual rats, 25 mg/kg", "result": "29.8 s and 28 s and 30 s and 27.7 s and 23.5 s and 33.8 s"}, {"measurement": "Paw withdrawal latency (s), FIG. 18B", "setting": "[3]; day 4, compound 2 25 mg/kg i.v. preemptive, individual rats, 25 mg/kg", "result": "25 s and 27.23 s and 36.5 s and 31.3 s and 31.9 s and 24.3 s"}, {"measurement": "reversal of FCA-induced tactile allodynia (finding in words)", "setting": "[3]; rat, 3, 10, 30 and 100 mg/kg p.o. curative, 24 hours post-FCA, significant at 10, 30 and 100 mg/kg, 30 and 60 minutes", "result": "significant reversal of FCA induced tactile allodynia; also recorded: able to reverse established inflammatory tactile allodynia; also recorded: significantly reversed"}, {"measurement": "FCA-induced tactile allodynia (finding in words)", "setting": "[3]; rat, p.o. single dose 25 mg/kg preemptive", "result": "significantly prevented"}, {"measurement": "FCA tactile allodynia (finding in words)", "setting": "[3]; rat, single dose 25 mg/kg i.v. preemptive, significant 24, 48 and 72 hours post-FCA, 25 mg/kg", "result": "prevented the development; also recorded: significantly prevented"}, {"measurement": "effect on capsaicin-mediated hyperalgesia", "setting": "[4]", "result": "inhibits capsaicin-mediated hyperalgesia"}, {"measurement": "IC50", "setting": "[5]", "result": 3.7, "unit": "µM"}, {"measurement": "reversal of hyperalgesia following incisional surgery", "setting": "[6]", "result": "reverses hyperalgesia following incisional surgery"}]}]}
